Data published in publication PMC9860313 (2022).

Assays:
[1] = system: stabilized aptamer (RNA, aptamer) GGCGAUACCAGCCGAAAGGCCCUUGGCAGCGCC; experiment: X-ray crystallography; settings: 30 mM NaCl, 5 mM MgCl2, 5 mM HEPES pH 7.5, 0.4 mM RNA, 1 mM ligand
[2] = system: aptamer-F (theophylline aptamer) (RNA, aptamer) GGCGAUACCAGCCGAAAGGCCCUUGGCAGCGUC; experiment: fluorescence strand invasion assay; settings: 10 mM NaCl, 5 mM MgCl2; 20 mM HEPES pH 7.5, 0.01% Tween-20; 37°C; inhibits invasion by BBQ-650 2'-F quencher strand (Q-invader); apparent
[3] = system: aptamer-B (theophylline aptamer) (RNA, aptamer, 3'-terminal (A)10 spacer is DNA (positions 34-43)) GGCGAUACCAGCCGAAAGGCCCUUGGCAGCGUC; experiment: surface plasmon resonance; settings: 150 mM NaCl, 5 mM MgCl2; 10 mM HEPES pH 7.4, 0.01-0.1% DMSO, 25°C
[4] = system: mutant aptamer-B (U24C) (RNA, aptamer, 3'-terminal (A)10 spacer is DNA (positions 34-43)) GGCGAUACCAGCCGAAAGGCCCUCGGCAGCGUC; experiment: surface plasmon resonance; settings: 150 mM NaCl, 5 mM MgCl2; 10 mM HEPES pH 7.4, 0.01-0.1% DMSO, 25°C; highest concentration 0.1-2.0 µM
[5] = system: pentaloop aptamer (RNA, aptamer) GGCGAUACCAGCGAAACACGCCCUUGGCAGCGUC; experiment: X-ray crystallography, soaked crystal; settings: 30 mM KCl, 10 mM MgCl2 (RNA refolding); Fab-RNA crystals soaked in 1.1 mM TAL2, 1 h; ligand not precisely placed
[6] = crystals from cacodylate pH 6.5, PEG 8K, MPD

Row | SMILES | binding [1, 6] | IC50 [2] | Kd [3] | binding ([1]; 0.2 M Ca(OAc)2 in reservoir, crystals from PEG 3350, 20°C) | binding [4] | binding [5]
1 | COc1cc2ncnc(N3CCN(CCCCO)CC3)c2cc1OC | yes | 1.92 µM | 0.28 µM |  |  | 
2 | COc1cc2c(O)ncnc2cc1OCC1CCN(C)CC1 | yes | 1.16 µM | 0.023 µM |  |  | 
3 | Cn1c(=O)cnc2c(N)nc(=O)[nH]c21 |  | 0.46 µM | 0.0020 µM | yes |  | 
4 | Cn1c(=O)c2[nH]cnc2n(C)c1=O | yes | 1.99 µM | 0.67 µM |  | no | 
5 | COc1cc2c(O)ncnc2cc1OCCCN1CCCCC1 | yes | 0.70 µM | 0.0091 µM |  |  | yes
